Series [1] can be described thus: Plasma pharmacokinetics after single oral administration in beagle dogs (Study 1). The series is classed as in vivo, dog. The conditions noted are these: mean ± SD; for half-life: beagle, dog, plasma, po, 2 mg/kg, read-out: terminal half-life (converted). The protocol:
The study was conducted according to a classical 2×2 crossover design. Briefly, in period one, half of the dog (3 males and 3 females), received a single oral dose of cimicoxib (approximately 2 mg/kg, one 20 mg capsules – Vetoquinol Lure france) 26.5 h after the induction of kaolin inflammation on the left paw; the other half dogs received a placebo treatment at the same time. In period 2, treatments were crossed over for each dog and inflammation was induced on the right paw. A wash-out delay of at least 5 weeks was applied between the two periods. The treatment (cimicoxib or placebo) was blinded to the investigators.
Blood samples (5 mL, heparinized tubes) were obtained from the jugular vein by direct puncture just before inflammation to perform a biochemical checkup of the animals at the beginning of the experiment. Time 0 was defined as the time of treatment administration. Blood samples (5 mL, heparinized tubes) were collected at time 0 (just before cimicoxib or placebo administration) and then at times 30, 60, 90 min, and, 4, 6, 9, 15, 30 and 48 hours post-treatment. Tubes were centrifuged at 3000 G and plasma samples were stored at -20°C.
Plasma samples were analyzed by a High Performance Liquid Chromatography (HPLC) method using ultraviolet (UV) detection. Briefly, an internal standard (UR-8877) and cimicoxib (UR-8880) were extracted from plasma by a solid liquid (methanol) extraction process using HLB Oasis cartridges (Waters). The extraction yield was about 90%. The HPLC apparatus consists of a pump system equipped with an automatic injector and an UV detector (242 nm). […] The validated limit of quantification was 0.01 μg/mL.
Pharmacokinetic and PK/PD modeling were performed by least-squares regression analysis using WinNonlin Professional software (WinNonlin® software, version 4.0.1, Pharsight Corporation, Mountain View, Ca, USA). […] The number of exponential (2 or 3) terms needed to obtain the best fit for each data set was determined by the Akaike’s information criteria and by inspecting the plot of residuals. […]

Series [2] is described as follows: Plasma pharmacokinetics after single intravenous administration in beagle dogs. The series is classed as in vivo, dog. To be noted: mean ± SD; for HL (plasma half-life): IV 2 mg/kg; for AUC / clearance / half-life / Vd: beagle, dog, plasma, iv, 2 mg/kg; for clearance: read-out: CL (plasma clearance) (converted); for half-life: read-out: HL (plasma half-life) (converted); for Vd: read-out: V (volume of distribution). The protocol: To verify this hypothesis, a PK investigation of cimicoxib following IV administration (bolus, 2 mg/kg) was performed on the 12 dogs at least 2 months after the completion of the PK/PD study. Blood samples were obtained from the jugular vein by direct puncture at time 0 (control just before the IV administration) and then 2, 15, 30, 60, 90 min. and 2, 3, 4, 6, 9, 12, 24, 30 and 48 hours after the test article administration.
Plasma samples were analyzed by a High Performance Liquid Chromatography (HPLC) method using ultraviolet (UV) detection. Briefly, an internal standard (UR-8877) and cimicoxib (UR-8880) were extracted from plasma by a solid liquid (methanol) extraction process using HLB Oasis cartridges (Waters). The extraction yield was about 90%. The HPLC apparatus consists of a pump system equipped with an automatic injector and an UV detector (242 nm). […] The mobile phase was a mixture of 0.65 L of ultra-pure water and 0.35 L of acetonitrile which was delivered at a flow rate of 1 mL per min. Under these conditions, cimicoxib (UR-8880) and the internal standard (UR-8877) were eluted at retention times of 6 to 7 min and 10 to 11 min, respectively. The method was linear over the calibration range of 0.01 to 5 μg/mL using a linear model weighted by 1/X^2. Within-day and day-to-day coefficients of variation were less than 9% and the accuracy ranged from 94 to 103%, indicating an appropriate precision and accuracy for the analytical method. The lack of interference from endogenous compounds was verified on blank plasma from untreated dogs, establishing the specificity of the method. The validated limit of quantification was 0.01 μg/mL.
For the IV study, a non-compartmental analysis was used to determined PK parameters.

Series [3] concerns kaolin-induced paw inflammation. The series is described as follows: Simulation of dose-effect relationship with the PK/PD model (EM dog parameters). To be noted: simulated, oral, dose-linearity assumed. How it is done: For higher cimicoxib doses, only the duration of the maximum effect was increased. […] Figure 6 Simulated values of the effects of the cimicoxib for different oral doses of cimicoxib for the 4 endpoints modeled using a PK/PD model in the 8 extensive metabolizer dogs. Effects of cimicoxib vs. time (h) were simulated using the corresponding PK/PD model for different oral doses of cimicoxib (from 0.1 to 8 mg/kg) on the rectal temperature (°C), the normalized vertical ground reaction force of the paw, the creeping speed (m/s) and the overall clinical lameness score. PK and PD parameters used for simulations were the means of those obtained in the 8 extensive metabolizer dogs. The thick line was obtained with 2 mg/kg, the dose that has been selected for confirmatory clinical trials.

For a further series, the system named is COX-2. Also noted: method as in PMID 12877584. The conditions noted are these: human whole blood assay, cited from earlier work.
Series [4] relates to peri-operative pain; pain and inflammation associated with osteoarthritis. To be noted: inferiority limit 20%, cited from earlier work.
Details of series [5]: method as in Vetoquinol, unpublished results. To be noted: non-linear disposition, ref Vetoquinol, unpublished results, cited from earlier work.

≈ marks a conversion by molar mass, not a printed value. Like-named read-outs stand apart in the source and are kept apart here.

Usually half-life stands for the time needed for the level to fall by half in the phase considered. Usually AUC stands for the area under the concentration-time curve, a measure of exposure. Lower therefore signals less exposure. A word on the clearance: it is the volume of plasma or blood freed of the substance per unit of time. A word on the IC50: it is the concentration at which inhibition is half-maximal.

Consider `COc1ccc(-c2c(Cl)ncn2-c2ccc(S(N)(=O)=O)cc2)cc1F` [cimicoxib], for which, in series [1] (EM beagle dogs (n = 8)), the half-life was 4.6 ± 2.6 h. Also, the half-life in series [1] (PM beagle dogs (n = 4)) was 8 ± 0.6 h. In series [1] (oral 2 mg/kg, EM beagle dogs (n = 8)), this molecule registered a terminal half-life of 2.9 ± 0.9 h. Besides, in series [2] (Extensive metabolizers (n = 8)), the “HL (plasma half-life)” value is recorded as 2.72 ± 0.858 h, the exposure (AUC) amounted to 7200 ± 1810 ng·h/mL, the clearance is 5.17 mL/min/kg and the half-life is 2.7 ± 0.9 h. Further, the Vd in series [2] (Extensive metabolizers (n = 8)) came out at 1.12 ± 0.203 L/kg. Also, in series [2] (Poor metabolizers (n = 4)), the “HL (plasma half-life)” value is on record as 5.63 ± 0.727 h, the AUC came to 19200 ± 3150 ng·h/mL, the clearance is 1.83 mL/min/kg and the half-life is 5.6 ± 1.7 h. In series [2] (Poor metabolizers (n = 4)), the Vd worked out at 0.89 ± 0.133 L/kg. For the same molecule, in series [3], the “dose predicted to give a nearly maximal effect, creeping speed” value is 1.5 mg/kg; the “dose predicted to give a nearly maximal effect, ground reaction vertical force” value is 3 mg/kg; the “dose predicted to give a nearly maximal effect, overall clinical lameness score” value was 2 mg/kg; the “dose predicted to give a nearly maximal effect, rectal temperature” value was 1 mg/kg. For the same molecule, the “IC50 COX-2 inhibition” value in the series on COX-2 was 0.025 µg/mL (≈ 0.0655 µM). Moreover, in the series on COX-2 (read-out: IC50 COX-2 inhibition), the IC50 was 66 nM. In addition, the “comparison against firocoxib, primary efficacy endpoint” value in series [4] (pain and inflammation associated with osteoarthritis) is reported as “non-inferiority”. Also, the “comparison to carprofen on pain during the first 24 hours (composite pain clinical score)” value in series [4] (peri-operative pain, orthopaedic or soft tissue surgery, carprofen 4 mg/kg per day) was “non-inferiority”. In series [5] (oral dose of 1 mg/kg), the “dose of the simulations to which observed plasma concentrations correspond” value was 1.46 mg/kg. For the same molecule, in series [5] (oral dose of 4 mg/kg), the “dose of the simulations to which observed plasma concentrations correspond” value is on record as 3.18 mg/kg.

Values taken from publication PMC3892053, “Pharmacokinetic/pharmacodynamic modeling for the determination of a cimicoxib dosing regimen in the dog” (BMC Veterinary Research, 2013).
